# Reference: PMC4648043, “Development of Small-Molecule Trypanosoma brucei N-Myristoyltransferase Inhibitors: Discovery and Optimisation of a Novel Binding Mode” (Chemmedchem, 2015)
# Read-outs that look alike come from different tables or passages of the source.
# Tests used:
# [1] = In vitro intrinsic clearance assay (CLint (m)); type: in vitro ADME; conditions: female CD1 mouse liver microsomes, 0.5 μM compound
# Protocol: […]; 0.5 mg (mL 50 mM potassium phosphate buffer)^−1, pH 7.4), and the reaction was started by the addition of excess NADPH (8 mg (mL 50 mM potassium phosphate buffer)^−1, pH 7.4). Immediately, at time zero, then at 3, 6, 9, 15 and 30 min, an aliquot (50 μL) of the incubation mixture was removed and mixed with acetonitrile (100 μL) to stop the reaction. Internal standard was added to all samples, the samples were centrifuged (10 min, 5 °C, 3270 g) to sediment precipitated protein and the plates then sealed prior to UPLC–MS/MS analysis using a Quattro Premier XE (Waters Corp., USA).
# XLfit (IDBS, UK) was used to calculate the exponential decay and consequently the rate constant (k) from the ratio of peak area of test compound to internal standard at each time point. The rate of intrinsic clearance (CLint: [mL min^−1 (g liver)^−1]) of each test compound was then calculated using Equation (1), in which V [mL (mg protein)^−1] is the incubation volume per mg protein added, and microsomal protein yield is taken as 52.5 mg protein per gram of liver. Verapamil (0.5 μM) was used as a positive control to confirm acceptable assay performance.
# hMRC5 [2] = experiment: MRC5 cell assay; type: cell-based; conditions: Homo sapiens, mean of two or more determinations
# [3] = In vitro plasma protein binding, equilibrium dialysis; type: in vitro ADME; conditions: female CD1 mouse plasma, equilibrium dialysis 5 h; read-out: PPB (converted)
# Protocol: In vitro plasma protein binding experiments: In brief, a 96-well equilibrium dialysis apparatus was used to determine the free fraction in plasma for each compound (HT Dialysis LLC, Gales Ferry, CT, USA). Membranes (12-14 kDa cutoff) were conditioned in deionised water for 60 min, followed by conditioning in 80:20 deionised water/EtOH for 20 min, and then rinsed in isotonic buffer before use. Female CD1 mouse plasma was removed from the freezer and allowed to thaw on the day of experiment. Thawed plasma was then centrifuged (Allegra […], Beckman Coulter, USA, 10 min, 5 °C, 3270 g), spiked with test compound (10 μg g^-1), and 150 μL aliquots (n=6 replicate determinations) loaded into the 96-well equilibrium dialysis plate. Dialysis versus isotonic buffer (150 μL) was carried out for 5 h in a temperature-controlled incubator at ∼37 °C (Barworld Scientific Ltd., UK) using an orbital microplate shaker at 125 rpm (Barworld Scientific). At the end of the incubation period, aliquots of plasma or buffer were transferred to micronic tubes (Micronic B.V., the Netherlands), and the composition in each tube was balanced with control fluid such that the volume of buffer to plasma was the same. […] All samples were analysed by UPLC-MS/MS on a Quattro Premier XE Mass Spectrometer (Waters Corp., USA). The unbound fraction was determined as the ratio of the peak area in buffer to that in plasma.
# T. brucei = T. brucei parasite growth assay; type: cell-based, Trypanosoma brucei; conditions: for EC50: Trypanosoma brucei, mean of two or more determinations; for Selectivity ratio: hNMT IC50/T. brucei cell assay EC50
# Protocol: (§1) Parasite and NMT assays: These were carried out as described previously.[8–10]
# TbNMT = target: T1, TbNMT (Trypanosoma brucei brucei, UniProt Q388H8); experiment: biochemical; type: biochemical; conditions: for LE TbNMT (ligand efficiency): calculated as 0.6 ln(IC50)/(heavy atom count); for IC50: mean of two or more determinations
# T1 sequence (Q388H8 1-446): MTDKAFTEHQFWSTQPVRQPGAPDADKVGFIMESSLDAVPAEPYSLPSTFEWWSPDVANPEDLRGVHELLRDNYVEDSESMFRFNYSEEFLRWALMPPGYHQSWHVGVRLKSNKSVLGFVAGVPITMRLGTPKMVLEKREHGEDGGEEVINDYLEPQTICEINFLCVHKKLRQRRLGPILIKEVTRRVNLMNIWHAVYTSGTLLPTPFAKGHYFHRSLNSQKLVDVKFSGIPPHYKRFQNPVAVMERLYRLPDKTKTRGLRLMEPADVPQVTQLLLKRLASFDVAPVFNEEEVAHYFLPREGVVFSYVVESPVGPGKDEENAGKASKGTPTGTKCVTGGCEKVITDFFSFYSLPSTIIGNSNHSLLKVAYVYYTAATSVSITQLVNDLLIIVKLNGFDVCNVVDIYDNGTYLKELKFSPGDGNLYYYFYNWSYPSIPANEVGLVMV
# Protocol: as §1
# hNMT = target: T2, hNMT (Homo sapiens, UniProt P30419); experiment: human NMT enzyme inhibition assay; type: biochemical; conditions: mean of two or more determinations
# T2 sequence (P30419 1-496): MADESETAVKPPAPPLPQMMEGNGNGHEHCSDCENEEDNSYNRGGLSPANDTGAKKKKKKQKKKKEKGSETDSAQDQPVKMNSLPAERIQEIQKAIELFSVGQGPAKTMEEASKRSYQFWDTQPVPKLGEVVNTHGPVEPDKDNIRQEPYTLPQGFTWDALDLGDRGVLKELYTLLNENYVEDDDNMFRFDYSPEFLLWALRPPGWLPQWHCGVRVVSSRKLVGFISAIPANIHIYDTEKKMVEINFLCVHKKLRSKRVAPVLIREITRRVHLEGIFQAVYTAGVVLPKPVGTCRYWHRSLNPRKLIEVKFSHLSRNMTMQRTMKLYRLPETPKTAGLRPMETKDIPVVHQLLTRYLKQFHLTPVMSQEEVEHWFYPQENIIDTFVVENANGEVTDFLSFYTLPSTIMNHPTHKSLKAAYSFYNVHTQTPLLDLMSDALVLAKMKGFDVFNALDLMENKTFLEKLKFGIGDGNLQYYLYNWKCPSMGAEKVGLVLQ
# Protocol: as §1
# hMRC5 [4] = tested on: hMRC5; design: method as in PMID 20360736; conditions: previously published inhibitor; cited from earlier work
Compound,CLint (m) [1],"fraction unbound at 5 h, 10 μg g^−1 [3]",EC50 (T. brucei),LE TbNMT (ligand efficiency) (TbNMT),IC50 (TbNMT; read-out: IC50 TbNMT),IC50 (hNMT),IC50 (TbNMT; IC50 TbNMT),EC50 (hMRC5 [2]),Selectivity ratio (T. brucei),EC50 (hMRC5 [4])
"Cc1cc(CN2C(=O)COc3cc(CCCOC[C@@H]4CCN(C)C4)ccc32)no1 [Compound 42, (R)-4-((5-Methylisoxazol-3-yl)methyl)-7-(3-((1-methylpyrrolidin-3-yl)methoxy)propyl)-2H-benzo[b][1,4]oxazin-3(4H)-one]",7.0 mL min^−1 (g liver)^−1,,0.35 µM,0.38,0.009 µM,24 µM,,> 50 µM,69,
"Cc1cc(CN2C(=O)COc3c(CCCCN4CCCN(C)CC4)cccc32)no1 [Compound 40, 4-(4-(4-((5-Methylisoxazol-3-yl)methyl)-3-oxo-3,4-dihydro-2H-benzo[b][1,4]oxazin-8-yl)butyl)homopiperazine-1-methyl]",,,0.08 µM,>0.38,< 0.002 µM,1 µM,,24 µM,13,
"COc1cc(C2SCC(=O)N2Cc2ccccc2)ccc1O (centres unmarked) [Compound 1, 3-Benzyl-2-(4-hydroxy-3-methoxyphenyl)thiazolidin-4-one]",,,> 50 µM,0.29,22 µM,28 µM,,> 50 µM,,
Cc1nn(C)c(C)c1NS(=O)(=O)c1c(Cl)cc(-c2ccnc(N3CCNCC3)c2)cc1Cl [DDD85646],,,,,,,,,,0.4 µM
"Cc1cc(CN2C(=O)COc3c(CCCCC4CCN(C)CC4)cccc32)no1 [Compound 41, 4-((5-Methylisoxazol-3-yl)methyl)-8-(4-(1-methylpiperidin-4-yl)butyl)-2H-benzo[b][1,4]oxazin-3(4H)-one]",10 mL min^−1 (g liver)^−1,0.18,0.19 µM,,,,,19 µM,,

# Second part, led by results:
CLint (m) [1],"fraction unbound at 5 h, 10 μg g^−1 [3]",EC50 (T. brucei),LE TbNMT (ligand efficiency) (TbNMT),IC50 (TbNMT; read-out: IC50 TbNMT),IC50 (hNMT),IC50 (TbNMT; IC50 TbNMT),Compound,EC50 (hMRC5 [2]),Selectivity ratio (T. brucei),EC50 (hMRC5 [4])
12 mL min^−1 (g liver)^−1,0.06,0.007 µM,,,,,"Cc1cc(CN2C(=O)COc3cc(CCCCC4CCN(C)CC4)ccc32)no1 [Compound 44, 4-((5-Methylisoxazol-3-yl)methyl)-7-(4-(1-methylpiperidin-4-yl)butyl)-2H-benzo[b][1,4]oxazin-3(4H)-one]",10 µM,,
2.0 mL min^−1 (g liver)^−1,,0.41 µM,,,,,"Cc1cc(CN2C(=O)COc3c(CCCCC4CCNCC4)cccc32)no1 [Compound 39, 4-((5-Methylisoxazol-3-yl)methyl)-8-(4-(piperidin-4-yl)butyl)-2H-benzo[b][1,4]oxazin-3(4H)-one]",> 50 µM,,
,,> 50 µM,0.42,,> 100 µM,12 µM,"CCOC(=O)CN1C(=O)COc2ccccc21 [Compound 14, Ethyl 2-(3-oxo-2H-benzo[b][1,4]oxazin-4(3H)-yl)acetate]",> 50 µM,,
